Literature values, collected in patent US11628197B2, “Methods and compounds for treating effects of COVID-19 disease” (priority 2020, dated 2023).

Experiments:
COVID-19 disease = details: US Veterans Administration hospitals, France, China and Brazil
COVID-19 = details: study of 243 subjects

Row | Molecule | Therapeutic effects after clinical testing (COVID-19 disease) | Efficacy for preventing intubation or death (COVID-19)
1 | CCN(CC)CCCC(C)Nc1ccnc2cc(Cl)ccc12 (stereo not drawn) [chloroquine] | failed to produce desired therapeutic effects | 
2 | CCN(CCO)CCCC(C)Nc1ccnc2cc(Cl)ccc12 (stereo not drawn) [hydroxycholoroquine] | failed to produce desired therapeutic effects | 
3 | Tocilizumab: humanized monoclonal antibody targeting IL-6 receptors |  | failed to show efficacy
